The values that follow come from ChEMBL document CHEMBL3091339 (J Med Chem, 2013).

The IC50 is the point on the concentration scale where inhibition reaches its midpoint. One may read the ED50 as the midpoint of the dose-response relation. A high value points to a need for a large dose.

Data set [1] has as its system Mus musculus. Put plainly: Neurotoxicity in CF-1 mouse at 250 mg/kg, po by rotarod test. Particulars: in vivo. Format: toxicity, organism-based. Further details: dose 250 mg/kg, route oral. Background: The rotarod test checks motor coordination on a turning rod.
In data set [2] the test system is Mus musculus. Nature of the data set: Anticonvulsant activity in CD-1 mouse assessed as protection against maximal electroshock-induced tonic extension of hind limbs at 300 mg/kg, ip after 0.5 hrs. In kind it is functional, organism-based. Further details: dose 300 mg/kg. Conditions: Hindlimb. A general note: In the maximal electroshock model the usual endpoint is tonic extension of the hind limbs.

Data set [3] is filed under the species Rattus norvegicus. Put plainly: Toxicity in Sprague-Dawley rat assessed as ataxia by Irwin test. Particulars: in vivo. Format: organism-based.
Data set [4] has as its system Mus musculus. Nature of the data set: Anticonvulsant activity in CD-1 mouse assessed as protection against maximal electroshock-induced tonic extension of hind limbs at 100 mg/kg, po after 0.5 hrs. Format: functional, organism-based. Further details: dose 100 mg/kg. Conditions: Hindlimb.
The next data set addresses Carbonic anhydrase 2 (Homo sapiens, UniProt P00918).
For data set [5], the species on record is Mus musculus. Nature of the data set: animal or person. Conditions: CF-1, Hindlimb, po, 1 h.
Description: Anticonvulsant activity in po dosed CF-1 mouse assessed as protection against maximal electroshock-induced tonic extension of hind limbs measured at 1 hr
Data set [6] relates to Mus musculus. Nature of the data set: Neurotoxicity in CF-1 mouse at 150 mg/kg, po by rotarod test. Format: toxicity, organism-based. Further details: dose 150 mg/kg, route oral. Particulars: in vivo.
Data set [7] relates to Mus musculus. Nature of the data set: Anticonvulsant activity in CD-1 mouse assessed as protection against maximal electroshock-induced tonic extension of hind limbs at 100 mg/kg, po after 2 hrs. Format: functional, organism-based. Further details: dose 100 mg/kg. Particulars: Hindlimb.
Data set [8] has as its system Rattus norvegicus. Nature of the data set: Anticonvulsant activity in ip dosed Sprague-Dawley rat hippocampal kindling model assessed as suppression of seizure activity treated 15 for mins post suprathreshold-stimulation. In kind it is functional, organism-based. Conditions: Hippocampus.
Data set [9] relates to Rattus norvegicus. Put plainly: Anticonvulsant activity in Sprague-Dawley rat hippocampal kindling model assessed as complete absence of seizure activity at >300 mg/kg, ip treated 15 for mins post suprathreshold-stimulation. In kind it is functional, organism-based. Conditions: Hippocampus.
Data set [10] relates to Mus musculus. Put plainly: Anticonvulsant activity in CD-1 mouse assessed as protection against maximal electroshock-induced tonic extension of hind limbs at 300 mg/kg, po after 2 hrs. Particulars: Hindlimb. Further details: dose 300 mg/kg. Format: functional, organism-based.
Data set [11] concerns Mus musculus. Put plainly: Anticonvulsant activity in CD-1 mouse assessed as protection against maximal electroshock-induced tonic extension of hind limbs at 300 mg/kg, po after 0.5 hrs. Format: functional, organism-based. Further details: dose 300 mg/kg. Conditions: Hindlimb.
Data set [12] deals with Rattus norvegicus. Nature of the data set: Anticonvulsant activity in Sprague-Dawley rat hippocampal kindling model assessed as reduction in global seizures at >26 mg/kg, ip treated 15 for mins post suprathreshold-stimulation. Format: functional, organism-based. Conditions: Hippocampus.
The target in data set [13] is Sodium channel protein type 2 subunit alpha (Rattus norvegicus) (UniProt P04775). In kind it is cell-based. Particulars: CHL1610.

The structures appear in SMILES notation. Active and inactive are the calls of the source.

Sequence of Sodium channel protein type 2 subunit alpha (Rattus norvegicus) (P04775 whole entry, looked up): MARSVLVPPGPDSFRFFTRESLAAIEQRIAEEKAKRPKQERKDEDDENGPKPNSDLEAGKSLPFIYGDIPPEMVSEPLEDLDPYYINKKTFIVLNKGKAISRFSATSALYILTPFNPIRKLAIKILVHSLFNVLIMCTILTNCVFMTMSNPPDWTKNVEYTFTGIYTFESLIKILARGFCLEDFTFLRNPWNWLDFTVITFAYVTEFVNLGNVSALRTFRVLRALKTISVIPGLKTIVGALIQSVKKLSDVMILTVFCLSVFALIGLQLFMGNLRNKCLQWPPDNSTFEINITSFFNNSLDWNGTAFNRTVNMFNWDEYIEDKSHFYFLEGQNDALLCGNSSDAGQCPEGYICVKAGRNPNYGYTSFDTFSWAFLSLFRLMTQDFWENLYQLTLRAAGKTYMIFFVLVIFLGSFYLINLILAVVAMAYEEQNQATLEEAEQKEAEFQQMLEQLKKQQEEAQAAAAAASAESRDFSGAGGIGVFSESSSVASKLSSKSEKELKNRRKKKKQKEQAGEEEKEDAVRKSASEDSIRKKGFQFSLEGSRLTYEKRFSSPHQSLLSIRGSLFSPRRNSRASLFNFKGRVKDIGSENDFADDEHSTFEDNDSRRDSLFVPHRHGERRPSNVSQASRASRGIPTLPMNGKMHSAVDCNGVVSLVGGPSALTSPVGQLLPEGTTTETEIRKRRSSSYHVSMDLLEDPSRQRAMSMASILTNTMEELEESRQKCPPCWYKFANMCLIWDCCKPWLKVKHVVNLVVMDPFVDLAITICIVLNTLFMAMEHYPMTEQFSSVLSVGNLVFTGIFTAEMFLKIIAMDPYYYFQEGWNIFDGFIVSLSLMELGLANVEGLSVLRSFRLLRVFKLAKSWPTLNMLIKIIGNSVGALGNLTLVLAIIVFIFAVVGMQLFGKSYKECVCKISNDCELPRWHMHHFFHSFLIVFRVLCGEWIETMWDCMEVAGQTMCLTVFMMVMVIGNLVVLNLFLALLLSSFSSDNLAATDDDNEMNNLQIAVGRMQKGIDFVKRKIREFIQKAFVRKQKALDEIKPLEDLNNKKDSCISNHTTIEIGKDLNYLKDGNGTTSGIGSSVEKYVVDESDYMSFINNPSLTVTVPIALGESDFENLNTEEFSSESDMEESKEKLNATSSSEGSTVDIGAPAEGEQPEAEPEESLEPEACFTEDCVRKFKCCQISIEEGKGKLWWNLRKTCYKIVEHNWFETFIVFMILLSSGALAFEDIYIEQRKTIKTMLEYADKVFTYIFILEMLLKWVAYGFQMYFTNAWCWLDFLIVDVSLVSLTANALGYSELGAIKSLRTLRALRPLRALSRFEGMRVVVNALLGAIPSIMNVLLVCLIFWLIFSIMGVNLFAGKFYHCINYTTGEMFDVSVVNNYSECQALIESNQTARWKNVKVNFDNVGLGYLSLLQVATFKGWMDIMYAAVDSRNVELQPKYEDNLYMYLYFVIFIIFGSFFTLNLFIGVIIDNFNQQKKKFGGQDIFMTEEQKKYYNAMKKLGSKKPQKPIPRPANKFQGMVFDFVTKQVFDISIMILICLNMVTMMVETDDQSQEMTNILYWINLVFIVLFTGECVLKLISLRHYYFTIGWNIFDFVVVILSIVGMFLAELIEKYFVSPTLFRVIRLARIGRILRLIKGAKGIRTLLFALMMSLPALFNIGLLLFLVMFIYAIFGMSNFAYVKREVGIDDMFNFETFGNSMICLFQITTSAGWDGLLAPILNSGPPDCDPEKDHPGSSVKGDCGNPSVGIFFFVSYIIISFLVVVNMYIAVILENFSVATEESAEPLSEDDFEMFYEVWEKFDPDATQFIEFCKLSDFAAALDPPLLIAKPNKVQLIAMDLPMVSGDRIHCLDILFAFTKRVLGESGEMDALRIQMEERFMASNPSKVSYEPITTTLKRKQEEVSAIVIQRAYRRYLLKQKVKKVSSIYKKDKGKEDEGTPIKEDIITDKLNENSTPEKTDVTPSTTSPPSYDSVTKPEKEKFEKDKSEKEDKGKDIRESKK
Description for Carbonic anhydrase 2: Inhibition of human carbonic anhydrase 2 by CO2 hydration assay

As for `NS(=O)(=O)NC[C@H]1COc2ccccc2O1`, the Activity result in the data set on Mus musculus [1] is recorded as “Non-toxic”. In addition, in the data set with Mus musculus [2], the outcome was Active.

Take `NS(=O)(=O)NC[C@@H]1COc2ccccc2O1`: the Activity entry in the data set filed under Rattus norvegicus [3] is “Toxic”. In addition, the outcome with Mus musculus [2] was Active.

As to `NS(=O)(=O)NC[C@H]1COc2c(Cl)cccc2O1`, the result with Mus musculus [4] was inactive. On Carbonic anhydrase 2, this compound showed an IC50 of 220 µM. It took a dose of 124 mg/kg to reach the 50% effect level in the data set listed under Mus musculus [5] (ED50).

`NS(=O)(=O)NC[C@H]1COc2ccc(Cl)cc2O1`: the Activity entry with Mus musculus [6] is “Non-toxic”. Moreover, the outcome in the data set on Mus musculus [4] was inactive.

Turning to `COc1cccc2c1O[C@@H](CNS(N)(=O)=O)CO2`, the outcome with Mus musculus [7] and in the data set with Mus musculus [4] was inactive. Further, the IC50 against Carbonic anhydrase 2 came out at 300 µM.

For the compound `CCC1(C)CC(=O)NC1=O` (centres undefined), the outcome in the data set with Rattus norvegicus [8] was inactive.

On to `CCCC(CCC)C(=O)O`, for which the result in the data set on Rattus norvegicus [8] and in the data set with Rattus norvegicus [9] was Active.

Regarding `Cc1ccc2c(c1)O[C@@H](CNS(N)(=O)=O)CO2`, the result in the data set with Mus musculus [10] and in the data set on Mus musculus [11] was inactive.

For the compound `NC(=O)N1c2ccccc2C=Cc2ccccc21`, the outcome with Rattus norvegicus [8] and in the data set on Rattus norvegicus [12] was Active.

Regarding `NCC1(CC(=O)O)CCCCC1`, the result in data set [13] was inactive.

In the case of `NS(=O)(=O)NCC1CCc2ccccc2O1` (centres undefined), in the data set with Mus musculus [11], the outcome was Active. The outcome in the data set with Mus musculus [7] was inactive.

In the case of `NS(=O)(=O)NCC1Oc2ccc(Cl)cc2O1` (centres undefined), the outcome in the data set on Mus musculus [7] and with Mus musculus [4] was inactive.
